Where a name gives a salt, the structure may show the parent alone.
Target: T1, Flag/GST-tagged recombinant human B-Raf (Homo sapiens, UniProt P15056)
T1 construct: Flag; GST; made in house; host or cells: Sf9 insect cells (B-Raf); E. coli (MEK1-GST)
Experiment: B-Raf kinase assay (phosphorylation of GST-MEK1, phospho-MEK1 antibody/Europium detection)
Format: biochemical
Conditions: B-Raf IC50 Data for compounds of Formula A; read-out: Mean IC50
Summary of the method: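 Percent inhibition was calculated at each compound concentration from Europium time-resolved fluorescence (anti-phospho-MEK1, then Eu-conjugated anti-rabbit) after GST capture. The upstream kinase step used GST-MEK1 with 0.2 nM B-Raf for 45 min at room temperature in MOPS buffer, pH 7.2. It was started with a cocktail of 200 μM ATP and 40 mM MgCl2.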

T1 sequence (P15056 whole entry): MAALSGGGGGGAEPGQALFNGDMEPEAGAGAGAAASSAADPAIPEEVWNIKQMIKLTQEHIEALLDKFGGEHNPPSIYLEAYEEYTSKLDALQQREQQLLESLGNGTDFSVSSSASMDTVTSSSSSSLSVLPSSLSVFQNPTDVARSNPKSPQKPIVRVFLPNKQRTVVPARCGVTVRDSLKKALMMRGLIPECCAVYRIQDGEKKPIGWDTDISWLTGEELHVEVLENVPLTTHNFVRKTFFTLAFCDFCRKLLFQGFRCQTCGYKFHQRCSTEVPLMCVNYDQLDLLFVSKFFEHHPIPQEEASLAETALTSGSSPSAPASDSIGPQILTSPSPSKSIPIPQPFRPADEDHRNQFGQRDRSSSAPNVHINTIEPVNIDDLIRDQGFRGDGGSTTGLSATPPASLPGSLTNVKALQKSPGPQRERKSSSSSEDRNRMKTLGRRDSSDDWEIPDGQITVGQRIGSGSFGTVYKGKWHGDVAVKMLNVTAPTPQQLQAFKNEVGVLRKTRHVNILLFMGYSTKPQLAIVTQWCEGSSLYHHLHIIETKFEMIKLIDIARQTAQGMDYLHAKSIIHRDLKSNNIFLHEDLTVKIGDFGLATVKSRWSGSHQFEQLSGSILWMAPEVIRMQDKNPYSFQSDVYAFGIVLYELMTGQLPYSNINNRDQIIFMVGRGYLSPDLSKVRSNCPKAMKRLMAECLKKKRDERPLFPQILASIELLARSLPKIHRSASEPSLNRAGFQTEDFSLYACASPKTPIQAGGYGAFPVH

SMILES	IC50 [nM]
CCN1C2CCC1CC(c1ccnc3c(-c4ccc(Cl)c5[nH]ncc45)c(-c4ccncc4)nn13)C2 (stereo not shown) [Example 79, 3-(7-Chloro-1H-indazol-4-yl)-7-(8-ethyl-8-azabicyclo[3.2.1]oct-3-yl)-2-pyridin-4-ylpyrazolo[1,5-a]pyrimidin, trifluoroacetate salt]	4
CCN1C2CCC1CC(c1ccnc3c(-c4ccc(C(F)(F)F)c5[nH]ncc45)c(-c4ccncc4)nn13)C2 (stereo not shown) [Example 80, 7-(8-Ethyl-8-azabicyclo[3.2.1]oct-3-yl)-2-pyridin-4-yl-3-[7-(trifluoromethyl)-1H-indazol-4-yl]pyrazolo[1,5-a]pyrimidine, trifluoroacetate salt]	48
CCOC(=O)N1C2CCC1CC(c1ccnc3c(-c4ccc(F)c5[nH]ncc45)c(-c4ccncc4)nn13)C2 (stereo not shown) [Example 81, Ethyl 3-[3-(7-fluoro-1H-indazol-4-yl)-2-pyridin-4-ylpyrazolo[1,5-a]pyrimidin-7-yl]-8-azabicyclo[3.2.1]octane-8-carboxylate, trifluoroacetate salt]	0.4
CCN1C2CCC1CC(c1ccnc3c(-c4cc(F)c(Cl)c5[nH]ncc45)c(-c4ccncc4)nn13)C2 (stereo not shown) [Example 82, 3-(7-Chloro-6-fluoro-1H-indazol-4-yl)-7-(8-ethyl-8-azabicyclo[3.2.1]oct-3-yl)-2-pyridin-4-ylpyrazolo[1,5-a]pyrimidine, trifluoro acetate salt]	2
CCOC(=O)N1C2CCC1CC(c1ccnc3c(-c4ccc5cc[nH]c5c4)c(-c4ccncc4)nn13)C2 (stereo not shown) [Example 85, Ethyl 3-[3-(1H-indol-6-yl)-2-pyridin-4-ylpyrazolo[1,5-a]pyrimidin-7-yl]-8-azabicyclo[3.2.1]octane-8-carboxylate]	36
CCN1C2CCC1CC(c1ccnc3c(-c4ccc5cc[nH]c5c4)c(-c4ccncc4)nn13)C2 (stereo not shown) [Example 87, 7-(8-Ethyl-8-azabicyclo[3.2.1]oct-3-yl)-3-(1H-indol-6-yl)-2-pyridin-4-ylpyrazolo[1,5-a]pyrimidine]	32
CCN1C2CCC1CC(c1ccnc3c(-c4cccc5[nH]ncc45)c(-c4ccncc4)nn13)C2 (stereo not shown) [Example 90, 7-(8-Ethyl-8-azabicyclo[3.2.1]octan-3-yl)-3-(1H-indazol-4-yl)-2-(pyridin-4-yl)pyrazolo[1,5-a]pyrimidine]	46
CCOC(=O)N1C2CCC1CC(c1ccnc3c(-c4cccc(-c5nnco5)c4)c(-c4ccncc4)nn13)C2 (stereo not shown) [Example 91, Ethyl 3-(3-(3-(1,3,4-oxadiazol-2-yl)phenyl)-2-(pyridin-4-yl)pyrazolo[1,5-a]pyrimidin-7-yl)-8-azabicyclo[3.2.1]octane-8-carboxylate]	162
Fc1cc(N2C[C@@H]3C[C@H]2CN3)ccc1-c1ccnc2c(-c3cccc4[nH]ncc34)c(-c3ccncc3)nn12 [Example 93, 7-{4-[(1S,4S)-2,5-diazabicyclo[2.2.1]hept-2-yl]-2-fluorophenyl}-3-(1H-indazol-4-yl)-2-pyridin-4-ylpyrazolo[1,5-a]pyrimidine]	< 0.3
CN1C[C@@H]2C[C@H]1CN2c1ccc(-c2ccnc3c(-c4cccc5[nH]ncc45)c(-c4ccncc4)nn23)c(F)c1 [Example 94, 7-{2-Fluoro-4-[(1S,4S)-5-methyl-2,5-diazabicyclo[2.2.1]hept-2-yl]phenyl}-3-(1H-indazol-4-yl)-2-pyridin-4-yl pyrazolo[1,5-a]pyrimidine]	0.1
C[N+]1([O-])C[C@@H]2C[C@H]1CN2c1ccc(-c2ccnc3c(-c4cccc5[nH]ncc45)c(-c4ccncc4)nn23)c(F)c1 (stereo partly drawn) [Example 95, 7-{2-fluoro-4-[(1S,4S)-5-methyl-5-oxido-2,5-diazabicyclo[2.2.1]hept-2-yl]phenyl}-3-(1H-indazol-4-yl)-2-pyridin-4-ylpyrazolo[1,5-a]pyrimidine]	0.59
Clc1cc(N2C[C@@H]3C[C@H]2CN3)ccc1-c1ccnc2c(-c3cccc4[nH]ncc34)c(-c3ccncc3)nn12 [Example 97, 7-[2-Chloro-4-((1S,4S)-2,5-diaza-bicyclo[2.2.1]hept-2-yl)-phenyl]-3-(1H-indazol-4-yl)-2-pyridin-4-yl-pyrazolo[1,5-a]pyrimidine bis-hydrochloride salt]	< 0.3
CN1C[C@@H]2C[C@H]1CN2c1ccc(-c2ccnc3c(-c4cccc5[nH]ncc45)c(-c4ccncc4)nn23)c(Cl)c1 [Example 98, 7-[2-Chloro-4-((1S,4S)-5-methyl-2,5-diaza-bicyclo[2.2.1]hept-2-yl)-phenyl]-3-(1H-indazol-4-yl)-2-pyridin-4-yl-pyrazolo[1,5-a]pyrimidine]	< 0.3
CC(C)(C)OC(=O)N1C[C@@H]2C[C@H]1CN2c1cc(F)c(-c2ccnc3c(-c4cccc5[nH]ncc45)c(-c4ccncc4)nn23)c(F)c1 [Example 99, tert-butyl(1S,4S)-5-{3,5-difluoro-4-[3-(1H-indazol-4-yl)-2-pyridin-4-ylpyrazolo[1,5-a]pyrimidin-7-yl]phenyl}-2,5-diazabicyclo[2.2.1]heptane-2-carboxylate]	1.6
Fc1cc(N2C[C@@H]3C[C@H]2CN3)cc(F)c1-c1ccnc2c(-c3cccc4[nH]ncc34)c(-c3ccncc3)nn12 [Example 100, 7-(4-((1S,4S)-2,5-diazabicyclo[2.2.1]heptan-2-yl)-2,6-difluorophenyl)-3-(1H-indazol-4-yl)-2-(pyridin-4-yl)pyrazolo[1,5-a]pyrimidine]	< 0.2
CN1C[C@@H]2C[C@H]1CN2c1cc(F)c(-c2ccnc3c(-c4cccc5[nH]ncc45)c(-c4ccncc4)nn23)c(F)c1 [Example 101, 7-{2,6-difluoro-4-[(1S,4S)-5-methyl-2,5-diazabicyclo[2.2.1]hept-2-yl]phenyl}-3-(1H-indazol-4-yl)-2-pyridin-4-yl pyrazolo[1,5-a]pyrimidine]	< 0.1
CC(C)(C)OC(=O)N1C[C@@H]2C[C@H]1CN2c1ccc(-c2ccnc3c(-c4ccc(F)c5[nH]ncc45)c(-c4ccncc4)nn23)cc1 [Example 102, tert-Butyl(1S,4S)-5-{4-[3-(7-fluoro-1H-indazol-4-yl)-2-pyridin-4-ylpyrazolo[1,5-a]pyrimidin-7-yl]phenyl}-2,5-diazabicyclo[2.2.1]heptane-2-carboxylate]	2.04
Fc1ccc(-c2c(-c3ccncc3)nn3c(-c4ccc(N5C[C@@H]6C[C@H]5CN6)cc4)ccnc23)c2cn[nH]c12 [Example 103, 7-[4-(2,5-Diaza-bicyclo[2.2.1]hept-2-yl)-phenyl]-3-(7-fluoro-1H-indazol-4-yl)-2-pyridin-4-yl-pyrazolo[1,5-a]pyrimidine]	< 0.3
CN1C[C@@H]2C[C@H]1CN2c1ccc(-c2ccnc3c(-c4ccc(F)c5[nH]ncc45)c(-c4ccncc4)nn23)cc1 [Example 104, 3-(7-fluoro-1H-indazol-4-yl)-7-{4-[(1S,4S)-5-methyl-2,5-diazabicyclo[2.2.1]hept-2-yl]phenyl}-2-pyridin-4-ylpyrazolo[1,5-a]pyrimidine hydrochloride]	0.24
Fc1cc(N2C[C@@H]3C[C@H]2CN3)ccc1-c1ccnc2c(-c3ccc(F)c4[nH]ncc34)c(-c3ccncc3)nn12 [Example 106, 7-{4-[(1S,4S)-2,5-diazabicyclo[2.2.1]hept-2-yl]-2-fluorophenyl}-3-(7-fluoro-1H-indazol-4-yl)-2-pyridin-4-yl pyrazolo[1 5-a]pyrimidine]	< 0.3
CN1C[C@@H]2C[C@H]1CN2c1ccc(-c2ccnc3c(-c4ccc(F)c5[nH]ncc45)c(-c4ccncc4)nn23)c(F)c1 [Example 107, 3-(7-fluoro-1H-indazol-4-yl)-7-{2-fluoro-4-[(1S,4S)-5-methyl-2,5-diazabicyclo[2.2.1]hept-2-yl]phenyl}-2-pyridin-4-ylpyrazolo[1,5-a]pyrimidine]	< 0.3
Fc1cc(N2C[C@@H]3C[C@H]2CN3)cc(F)c1-c1ccnc2c(-c3ccc(F)c4[nH]ncc34)c(-c3ccncc3)nn12 [Example 109, 7-{4-[(1S,4S)-2,5-Diazabicyclo[2.2.1]hept-2-yl]-2,6-difluorophenyl}-3-(7-fluoro-1H-indazol-4-yl)-2-pyridin-4-yl pyrazolo[1,5-a]pyrimidine]	< 0.3
CN1C[C@@H]2C[C@H]1CN2c1cc(F)c(-c2ccnc3c(-c4ccc(F)c5[nH]ncc45)c(-c4ccncc4)nn23)c(F)c1 [Example 110, 7-{2,6-Difluoro-4-[(1S,4S)-5-methyl-2,5-diazabicyclo[2.2.1]hept-2-yl]phenyl}-3-(7-fluoro-1H-indazol-4-yl)-2-pyridin-4-yl pyrazolo[1,5-a]pyrimidine]	< 0.1
OCCN1C2CCC1CC(c1ccnc3c(-c4cccc5[nH]ncc45)c(-c4ccncc4)nn13)C2 (stereo not shown) [Example 112, 2-{3-[3-(1H-indazol-4-yl)-2-pyridin-4-ylpyrazolo[1,5-a]pyrimidin-7-yl]-8-azabicyclo[3.2.1]oct-8-yl}ethanol]	22.8
CC(C)N1C2CCC1CC(c1ccnc3c(-c4cccc5[nH]ncc45)c(-c4ccncc4)nn13)C2 (stereo not shown) [Example 113, 3-(1H-indazol-4-yl)-7-(8-isopropyl-8-azabicyclo[3.2.1]oct-3-yl)-2-pyridin-4-ylpyrazolo[1,5-a]pyrimidine]	67
NC(=O)N1C2CCC1CC(c1ccnc3c(-c4cccc5[nH]ncc45)c(-c4ccncc4)nn13)C2 (stereo not shown) [Example 115, 3-[3-(1H-indazol-4-yl)-2-pyridin-4-ylpyrazolo[1,5-a]pyrimidin-7-yl]-8-azabicyclo[3.2.1]octane-8-carboxamide]	9.1
CN(C)CC(=O)N1C2CCC1CC(c1ccnc3c(-c4cccc5[nH]ncc45)c(-c4ccncc4)nn13)C2 (stereo not shown) [Example 116, 2-{3-[3-(1H-indazol-4-yl)-2-pyridin-4-ylpyrazolo[1,5-a]pyrimidin-7-yl]-8-azabicyclo[3.2.1]oct-8-yl}-N,N-dimethyl-2-oxoethanamine]	61.8
N#CCN1C2CCC1CC(c1ccnc3c(-c4cccc5[nH]ncc45)c(-c4ccncc4)nn13)C2 (stereo not shown) [Example 117, {3-[3-(1H-indazol-4-yl)-2-pyridin-4-ylpyrazolo[1,5-a]pyrimidin-7-yl]-8-azabicyclo[3.2.1]oct-8-yl}acetonitrile]	2.8

Reference: patent US20100029657A1, “Bridged, Bicyclic Heterocyclic or Spiro Bicyclic Heterocyclic Derivatives of Pyrazolo[1, 5-A]Pyrimidines, Methods for Preparation and Uses Thereof” (Wyeth, priority 2008, published 2010)
